Key:
[1] = Incubation of R-107 in mouse plasma, relative concentrations by HPLC; format: in vitro ADME; conditions: R-107 4 mM in mouse plasma, 37° C.
Description: In an in vitro study, 2,2,5,5-tetramethyl-3-(nitrooxymethyl)pyrrolidin-1-yl acetate (R-107) was incubated in mouse or rat plasma at 37° C. at a concentration of 4 mM, and the relative concentrations of this compound as well as of its corresponding hydroxylamine, (1-hydroxy-2,2,5,5-tetramethylpyrrolidin-3-yl) methyl nitrate (R-105), and 3-nitratomethyl-2,2,5,5-tetramethylpyrrolidinyloxy (R-100), were measured by HPLC.

[2] = test system: retinal ischemia-reperfusion injury; assay: Murine model of retinal ischemia-reperfusion injury; format: in vivo, C57BL/6 mice; conditions: protocol only; 30 mg/kg/day IP BID
Description: In this study, the efficacy of R-107 in subacute murine model of retinal ischemia-reperfusion injury is tested, using male C57BL/6 mice (n=10 per group). Briefly, the anterior chamber of the right eye is cannulated with a 30 gauge needle attached to a line infusing sterile saline. The intraocular pressure (IOP) is raised to 110 mmHg by elevating the saline reservoir. The left eye undergoes sham surgery, in which the needle is inserted into the anterior chamber without elevating IOP. R-107 is injected (30 mg/kg/day IP BID) commencing directly before reperfusion. 2 vehicle controls (normal saline and HPCD) is compared to drug therapy. Treatments are repeated twice daily thereafter until sacrifice. The outcome of these pharmacologic studies is quantitatively assessed by using terminal deoxynucleotidyl transferase dUTP nick end labeling (TUNEL) to measure retinal cell death (after 3 days), confocal imaging to quantify survival of ganglion cell layer neurons (after 7 days), and electroretinogram recordings to measure retinal neuronal function (after 21 days).

[3] = test system: myocardial ischemia-reperfusion injury; assay: Rat model of myocardial ischemia-reperfusion injury; format: in vivo, Sprague-Dawley rats; conditions: protocol only; 10, 30, 80 mg/kg IV
Description: In order to test the efficacy of R-107 in a myocardial ischemia reperfusion injury, male aged Sprague-Dawley rats are dosed with R-107 (0, 10, 30, 80 mg/kg IV) 10 minutes prior to the end of a 30 minutes period of ischemia produced by occlusion of the left anterior descending (LAD) coronary artery. Cardiac function is monitored by a Millar catheter for the determination of heart rate (HR), systolic and diastolic blood pressure (BP), left ventricular (LV) systolic BP, LV end-diastolic BP (LVEDP), ±dP/dt, pressure-volume (PV) loop, and tau (τ). 3 hours post-ischemia, blood and myocardium are analyzed for morphologic, histochemical, and bioanalytical injury. The area of necrosis, as a % of area at risk (AAR), and the extent of the no-reflow zone are quantified.

[4] = Plasma pharmacokinetics in sheep (release of R-100 from R-107), LCMS; format: in vivo
Description: In the following two experiments, the pharmacokinetic of releasing R-100 from R-107, via R-105 that is the reduced form of R-100, was studied in vivo according to the protocol described herein.
100 μl aliquots plasma obtained from R-107-treated sheep or pig were thawed and 200 μl ice-cold ethanol was added to each 100 μl sample to precipitate protein. Samples were then vortexed, placed on ice for 10 minutes, and then spun down at room temperature for 15 minutes. A first 100 μl supernatant from each spun sample was withdrawn and placed in a labeled HPLC micro vial to which 300 μl MPA (LC mobile phase A) was added, and the vial contents were then mixed and submitted for LCMS analysis (kept at 4° C.). The concentration of R-107 was measured in this sample as was the concentration of R105. A second 100 μl supernatant from each spun sample was added to a labelled HPLC micro vial to which 300 μl MPA and 2 μl of Reducing solution (ascorbic acid, 1.0 mg/ml in water) were added. These vials were vortexed; incubated at 50° C. for 1 hour with gentle shaking; and were then cooled to 4° C. and submitted for LCMS analysis. This sample was analyzed for R105, i.e., reduced form of R-100, and the amount measured thus represents the sum of R-100 and R-105 originally present in the plasma. The concentration of R-100 can be calculated from that of the R-105 in the second sample minus that of R-105 in the first sample. However, the concentrations of R-105 were seen to be low (approximately 10% or less of those of R-100) and so the results reported below as R-100 are not corrected for R-105.
Sets of standards (R-100, R-105 and R-107) were prepared by spiking individually in pig plasma. 100 μl aliquots of these spiked plasma samples, after thawing, were included in the above extraction protocol.
Analysis method were carried out with an Agilent HPLC stack, with column eluate directed, via a diverter valve, into the source of an AB Sciex ‘Qstar Elite’ Hybrid TOF, high-resolution mass spectrometer. LC column: Phenomenex Kinetex C18 2.6u 100A, 2.1×50 mm. LC mobile phase A: H2O with 0.02% trifluoroacetic acid (TFA), 0.1% formic acid (HOF); Phase B: acetonitrile (ACN) with 0.02% TFA, 0.1% HOF. Mobile phase flow rate=500 μl/min. Injection size: 8 μl, via Agilent 1100 u-WPS autosampler. […]

[5] = test system: Pseudomonas aeruginosa (PSA)-induced septic pneumonia; assay: Sheep model of septic pneumonia; format: in vivo, Merino sheep; conditions: protocol only; total 80 mg/kg BID IV
Description: In this study, a model of sheep suffering from Pseudomonas aeruginosa (PSA)-induced septic pneumonia and consequent pulmonary dysfunction is used. Female Merino sheep are operatively instrumented for chronic study with Swan-Ganz®, i.e., pulmonary artery, and femoral artery catheters, and are randomly allocated to vehicle control or R-107 treatment group. Smoke inhalation injury (48 breaths of cotton smoke) is induced and 2.4×10^11 colony-forming units (CFU) of PSA are instilled in the lung via bronchoscope under general anesthesia. The animal in the treatment group are intravenously (IV) administered with a total of 80 mg/kg of R-107 BID. Ringer's lactate solution is titrated IV to maintain hematocrit (hct) at baseline±3%. Measurements are taken at baseline and every 3 hours during the 24 hours study period. Data are expressed as mean±SEM. Statistical analysis: two-way ANOVA and Bonferroni post hoc comparison. A p-value <0.05 is considered as statistically significant.

SMILES: CC(=O)ON1C(C)(C)CC(CO[N+](=O)[O-])C1(C)C (centres unmarked) [R-107, 2,2,5,5-tetramethyl-3-(nitrooxymethyl)pyrrolidin-1-yl acetate]
- Relative concentration of R-107 ([1]; 0.1 hrs): 326
- Relative concentration of R-107 ([1]; 1.5 hrs): 284
- Relative concentration of R-107 ([1]; 20 hrs): 0
- Efficacy in murine model of retinal ischemia-reperfusion injury [2]: Effective
- Efficacy in rat model of myocardial ischemia-reperfusion injury [3]: Effective
- R-100 in plasma ([4]; IM neat R-107 25 mg/kg, 48 hrs post dose): not detected
- R-107 in plasma ([4]; IV neat R-107 25 mg/kg over 10 minutes, 2 hrs post dose): not detected
- R-107 in plasma ([4]; IV neat R-107 25 mg/kg over 10 minutes, 4 hrs post dose): not detected
- R-107 in plasma ([4]; IV neat R-107 25 mg/kg over 10 minutes, 6 hrs post dose): not detected
- R-107 in plasma ([4]; IV neat R-107 25 mg/kg over 10 minutes, 8 hrs post dose): not detected
- R-107 in plasma ([4]; IV neat R-107 25 mg/kg over 10 minutes, 24 hrs post dose): not detected
- concentration at 0 h ([4]; plasma, IV neat R-107 25 mg/kg over 10 minutes, 0 hrs post dose): 0 ng/mL
- concentration at 0.1 h ([4]; plasma, IV neat R-107 25 mg/kg over 10 minutes, 0.1 hrs post dose): 5500 ng/mL
- concentration at 0.4 h ([4]; plasma, IV neat R-107 25 mg/kg over 10 minutes, 0.4 hrs post dose): 1210 ng/mL
- concentration at 0.5 h ([4]; plasma, IV neat R-107 25 mg/kg over 10 minutes, 0.5 hrs post dose): 200 ng/mL
- concentration at 1 h ([4]; plasma, IV neat R-107 25 mg/kg over 10 minutes, 1 hrs post dose): 0 ng/mL
- Efficacy in sheep model of septic pneumonia [5]: Effective
